Experimental data from PMC4544722 (Drug Design, Development and Therapy, 2015).

Assay: everted gut sac model in vitro
Conditions: jejunum, ECH 0.09 mg/mL; verapamil 0.2 mg/mL, borneol 0.1 mg/mL, pennyroyal 0.1 mL/mL, clove oil 0.1 mL/mL

CC1(C)C2CCC1(C)C(O)C2 (stereo not shown) [borneol]
effect on ECH absorption parameters F and Papp versus control: neither borneol nor pennyroyal had significant absorption enhancing effect
